In patent publication US5350748A, “3-thio or amino substituted-benzo[b]thiophene-2-carboxamides and 3-oxygen, thio, or amino substituted-benzofuran-2-carboxamides as inhibitors of cell adhesion” (Warner-Lambert Company, priority 1993, dated 1994):

These molecules were tested on human neutrophil adhesion to TNF-α-stimulated human umbilical vein endothelial cells (HUVEC) (assay: Modified method: inhibition of human neutrophil adhesion to TNF-α-stimulated human umbilical vein endothelial cells (calcein-labeled neutrophils)). Conditions: 33 μM, neutrophils labeled with calcein, read-out: Adhesion ECA, % inhibition.
Type: cell-based
Procedure: The 3-thiol, thioether, amino, alkylamino, or arylamino-benzo[b]thiophene-2-carboxamides and 3-alkoxy, aryloxy, thiol, thioether, amino, alkylamino, or arylamino-benzofuran-2-carboxamides have been shown in an in vitro assay to prevent the adhesion of neutrophils to human umbilical vein endothelial cells (HUVECS) stimulated with TNF-α. In this assay, HUVECS are stimulated with TNF-α for 4 hours, after which the cells are assayed for their ability to adhere to human neutrophils labeled with either ^51 Cr or calcein, a fluorescent dye. The details of this assay are described in the DETAILED DESCRIPTION.
Neutrophils were isolated from anticoagulant-treated venous blood obtained from healthy human volunteers according to the method of Ferrante and Thong [J. Immunol. Methods 24, 389-93 (1978)]. The cell preparations consisted of greater than 98% neutrophils.
Modified Method for Determining the Inhibition of Human Neutrophil Adhesion to TNF-α, IL-1α, and LPS Stimulated Human Umbilical Vein Endothelial Cells
The previous assay using ^51 Cr labeled human neutrophils has been modified. The neutrophils are now labeled with the fluorescent dye calcein. The current method allows for quantification of neutrophil adherence by fluorescence spectroscopy.
Second passage HUVEC (Clonetics Corporation, San Diego, Calif., CC-2617) were seeded into Coring (Corning glass works, Corning, N.Y.) 96-well cell culture plates at approximately 5×10^3 cells/well and grown to confluency in supplemented endothelial basal medium (EBM, MCDB-131, Clonetics, 10 ng/mL EGF, 1 μg/mL hydrocortisone, 0.4% bovine brain extract, 5% Fetal Bovine Serum). One day prior to running the assay, typically 3 days postseeding, the cultures were refed with 0.2 mL/well supplemented EBM (S-EBM).
Test compounds were prepared as 10 mL stock solutions at a concentration of 1.0 mM. The compounds were initially solubilized in 0.1 mL DMSO followed by the addition of 9.9 mL S-EBM. The drug preparations were then diluted in one step to a concentration of 66.6 μM or 200 μM. Solubilizations and dilutions were performed in polystyrene containers.
Recombinant human tumor necrosis factor-α (TNF, Genzyme, Boston, Mass., code TNF-H) was prepared at 400 U/mL in S-EBM. Stock TNF was prepared to 20,000 U/mL in Delbecco's phosphate-buffered saline (PBS, Gibco, Grand Island N.Y.) plus 0.1% BSA and stored at -70° C. HUVEC were washed one time with 0.2 mL warm unsupplemented EBM and then stimulated for 4hours at 37° C. with 200 U/mL TNF in the presence of 33.3 μM or 100 μM test compound. This was accomplished by adding 0.1 mL of 400 U/mL TNF and 0.1 mL 66.6 μM or 0.1 mL of 200 μM test compound. These additions were done slowly as to not disrupt the HUVEC monolayer. Each compound was tested in six wells. Unstimulated (vehicle control) and TNF-stimulated without test compound treatments were also run in each plate.
One hour prior to adding the neutrophils (isolated as previously described) to the HUVEC, neutrophils (5×10^6 /mL) were labeled for 30 minutes at 37° C. with 5 μM calcine-AM (Molecular Probes, Eugene, Oreg.) in Hanks' balanced salt solution plus 0.45% BSA. Stock calcein was prepared to 5mM in anhydrous DMSO and stored desiccated at -20° C. At the end of the incubation the cells were washed two times in cold HBSS and resuspended to a final concentration of 1×10^6 cells/mL in unsupplemented EBM.
At the end of the 4-hour stimulation and immediately prior to the addition of the neutrophils to the HUVEC monolayer, the plates were washed with 0.2 ml warm unsupplemented EBM to remove TNF and drug. Neutrophils (1×10^5 cells) were slowly added to each of the treated wells and incubated for 30 minutes at 37° C. At the end of the incubation the plates were washed two times with 0.2 mL warm unsupplemented EBM followed by a final addition of 0.1 mL for plate scanning.
The fluorescence was determined using a Millipore Cytofluor 2300 system (excitation=480, emission=530, sensitivity=4). […]
For `COC(=O)c1ccc(CSc2c(C(N)=O)sc3ccc(OC)cc23)cc1` [Example 16, Methyl 4-[[[2-(aminocarbonyl)-5-methoxybenzo[b]thien-3-yl]thio]methyl]benzoate], the inhibition at 33 µM was 10%.
`CC(C)Sc1c(C(N)=O)sc2cccc(Cl)c12` [Example 12, 4-Chloro-3-[(1-methylethyl)thio]benzo[b]thiophene-2-carboxamide] was tested, and the inhibition at 33 µM was 34%.
With `COc1ccc2sc(C(N)=O)c(SCc3ccccc3)c2c1` [Example 6, 5-Methoxy-3-[(phenylmethyl)thio]benzo[b]thiophene-2-carboxamide] the inhibition at 33 µM was 35%.
With `COC(=O)CCSc1c(C(N)=O)sc2ccc(OC)cc12` [Example 10, Methyl 3-[[2-(aminocarbonyl)-5-methoxybenzo[b]thien-3-yl]thio]propanoate] the inhibition at 33 µM was 55%.
In the case of `CN(C)c1c(C(N)=O)sc2cccc(Cl)c12` [Example 18, 4-Chloro-3-(dimethylamino)benzo[b]thiophene-2-carboxamide], the inhibition at 33 µM is reported as 10%.
For `COC(=O)CCCCSc1c(C(N)=O)sc2ccc(OC)cc12` [Example 13], the inhibition at 33 µM was 21%.
Molecule `COc1ccc2sc(C(N)=O)c(SCCCCC(=O)O)c2c1` [Example 14] has an inhibition at 33 µM of 37%.
With `COc1ccc2sc(C(N)=O)c(S)c2c1` [Example 9, 3-Mercapto-5-methoxybenzo[b]thiophene-2-carboxamide] the inhibition at 33 µM was 15%.
For `COc1cccc2sc(C(N)=O)c(N(C)C)c12` [Example 20, 3-(Dimethylamino)-4-methoxybenzo[b]thiophene-2carboxamide], the inhibition at 33 µM was 63%.
With `COc1ccc2sc(C(=O)Nc3ccc(C(=O)O)cc3)c(SC(C)C)c2c1` [Example 8, 4-[[[5-Methoxy-3[(1-methylethyl)thio]benzo[b]thien-2yl]carbonyl]amino]benzoic acid] the inhibition at 33 µM was 13%.
In the case of `CC(C)Sc1c(C(N)=O)sc2ccc(OCc3ccccc3)cc12` [Example 17, 3-[(1-Methylethyl)thio]-5-(phenylmethoxy)benzo[b]thiophene-2-carboxamide], the inhibition at 33 µM is reported as 24%.
In the case of `COC(=O)c1ccc(NC(=O)c2sc3ccc(OC)cc3c2SC(C)C)cc1` [Example 7, Methyl 4-[[[5-methoxy-3-[(1-methylethyl)thio]benzo[b]thien-2yl]carbonyl]amino]benzoate], the inhibition at 33 µM is reported as 19%.
`NC(=O)c1oc2cccc(Cl)c2c1N` [Example 26, 3-Amino-4-chloro-2-benzofurancarboxamide] was tested, and the inhibition at 33 µM was 24%.
Work on `COc1ccc2sc(C(N)=O)c(S(=O)(=O)C(C)C)c2c1` [Example 3, 5-Methoxy-3-[(1-methylethyl)sulfonyl]benzo[b]thiophene-2-carboxamide] yielded an inhibition at 33 µM of 32%.
`CC(C)Oc1c(C(N)=O)oc2ccc(O)cc12` [Example 38, 5-Hydroxy-3-(1-methylethoxy)-2-benzofurancarboxamide] was tested, and the inhibition at 33 µM was 67%.
In the case of `CSc1ccc2sc(C(N)=O)c(N(C)C)c2c1` [Example 21, 3-Dimethylamino-5-(methylthio)benzo[b]thiophene-2-carboxamide], the inhibition at 33 µM is reported as 53%.
With `NC(=O)c1oc2ccccc2c1N` [Example 25, 3-Amino-2-benzofurancarboxamide] the inhibition at 33 µM was 21%.
`COc1ccc2sc(C(N)=O)c(SCCN3CCOCC3)c2c1` [Example 11, 5-Methoxy-3-[[2-(4-morpholinyl)ethyl]thio]benzo[b]thiophene-2-carboxamide] showed an inhibition at 33 µM of 27%.
For `COc1cccc2sc(C(N)=O)c(N)c12` [Example 19, 3-Amino-4-methoxybenzo[b]thiophene-2-carboxamide], the inhibition at 33 µM was 30%.
`COc1ccc2sc(C(N)=O)c(SCC(=O)O)c2c1` [Example 15, [[2-(Aminocarbonyl)-5-methoxybenzo[b]thien-3-yl]thio]acetic acid] showed an inhibition at 33 µM of 7%.

Same assay, conditions: 100 μM, neutrophils labeled with calcein, read-out: Adhesion ECA, % inhibition
Molecule `CC(C)Oc1c(C(=O)NCc2ccccc2)oc2ccc(Cl)cc12` [Example 32, 5-Chloro-3-(1-methylethoxy)-N-(phenylmethyl)-2-benzofurancarboxamide] has an inhibition at 100 µM of 95%.
In the case of `COc1ccc2oc(C(=O)NCc3ccccc3)c(OC(C)C)c2c1` [Example 30, 5-Methoxy-3-(1-methylethoxy)-N-(phenylmethyl)-2-benzofurancarboxamide], the inhibition at 100 µM is reported as 42%.
`COc1ccc2c(c1)c(Nc1ccccc1)c(C(N)=O)[s+]2[O-]` (stereo not shown) [Example 24, 5-Methoxy-3-(phenylamino)benzo[b]thiophene-2-carboxamide-1-oxide] showed an inhibition at 100 µM of 21%.
`CC(C)Oc1c(C(=O)Nc2ccccc2)oc2ccccc12` [Example 34, 3-(1-Methylethoxy)-N-phenyl-2-benzofurancarboxamide] gave an inhibition at 100 µM of 70%.
Molecule `CC(C)Oc1c(C(=O)NCc2ccccc2)oc2ccccc12` [Example 35, 3-(1-Methylethoxy)-N-(phenylmethyl)-2-benzofurancarboxamide] has an inhibition at 100 µM of 61%.
Work on `CC(C)Oc1c(C(=O)Nc2ccccc2)oc2ccc(Cl)cc12` [Example 31, 5-Chloro-3-(1-methylethoxy)-N-phenyl-2-benzofurancarboxamide] yielded an inhibition at 100 µM of 11%.
`CC(C)Oc1c(C(N)=O)oc2ccccc12` [Example 29, 3-(1-Methylethoxy)-2-benzofurancarboxamide] showed an inhibition at 100 µM of 20%.
`CC(C)Oc1c(C(N)=O)oc2ccc(Cl)cc12` [Example 28, 5-Chloro-3-(1-methylethoxy)-2-benzofurancarboxamide] was tested, and the inhibition at 100 µM was 52%.
Work on `COc1ccc2oc(C(N)=O)c(OCc3ccccc3)c2c1` [Example 36, 5-Methoxy-3-(phenylmethoxy)-2-benzofurancarboxamide] yielded an inhibition at 100 µM of 4%.
In the case of `CC(C)NC(=O)c1oc2ccccc2c1OC(C)C` [Example 33, 3-(1-Methylethoxy)-N-(1-methylethyl)-2-benzofurancarboxamide], the inhibition at 100 µM is reported as 15%.
In the case of `COc1ccc2c(c1)c(NC(C)C)c(C(N)=O)[s+]2[O-]` (stereo not shown) [Example 23, 5-Methoxy-3-[(1-methylethyl)amino]benzo[b]thiophene-2-carboxamide-1-oxide], the inhibition at 100 µM is reported as 7%.
In the case of `CC(C)Oc1c(C(N)=O)oc2ccc(-c3ccccc3)cc12` [Example 37, 3-(1-Methylethoxy)-5-phenyl-2-benzofurancarboxamide], the inhibition at 100 µM is reported as 68%.
`CNc1c(C(N)=O)[s+]([O-])c2ccc(OC)cc12` (stereo not shown) [Example 22, 5-Methoxy-3-(methylamino)benzo[b]thiophene-2-carboxamide-1-oxide] showed an inhibition at 100 µM of 16%.

Same assay, conditions: footnote a, neutrophil label not given, IC50 by linear regression from 33.3, 10.0, 3.3 and 1.0 μM, read-out: Adhesion ECA, IC50
In the case of `COc1ccc2oc(C(N)=O)c(OC(C)C)c2c1` [Example 27, 5-Methoxy-3-(1-methylethoxy)-2-benzofurancarboxamide], the IC50 is reported as 13 µM.
